Some results are limits rather than exact numbers.

For 8 molecules, GI50 results are on record in patent US20240228458A1, “PYRIMIDINE DERIVATIVE HAVING PROTEIN KINASE INHIBITORY ACTIVITY, AND THERAPEUTIC PHARMACEUTICAL COMPOSITION COMPRISING SAME” (THERAPEX CO., LTD., priority 2021, published 2024).

Type in all cases: cell-based
For experiment [1], the system named is Ba/F3 cells expressing del19/T790M/C797S (EGFR-DTC). Nature of the experiment: Growth inhibition (GI50) of Ba/F3 cells expressing del19/T790M/C797S (EGFR-DTC), Celltiter glo. The settings on record: Mus musculus, BaF3, 72 h. The method in brief: (§1)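 Viability read by CellTiter-Glo after 72 h compound exposure (37 °C, 5% CO2) of variant-expressing Ba/F3 cells plated at 100,000 cells/ml. Dosing 4 h post-seeding; 10-pt 4-fold series from 2 mM stock; 0.5% DMSO. GI50 = molar concentration (μM) giving half-maximal growth inhibition.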

For experiment [2], the system named is Ba/F3 cells expressing EGFR-wt. Nature of the experiment: Growth inhibition (GI50) of Ba/F3 cells expressing EGFR-wt, Celltiter glo. As to conditions: Mus musculus, BaF3, 72 h. The method in brief:
as §1
Background: Cellular ATP, detected with luciferase, serves as a proxy for viable cell number.

The subject of experiment [3] is Ba/F3 cells expressing L858R/T790M/C797S (EGFR-LTC). The experiment is described as follows: Growth inhibition (GI50) of Ba/F3 cells expressing L858R/T790M/C797S (EGFR-LTC), Celltiter glo. As to conditions: Mus musculus, BaF3, 72 h. The essentials:
as §1

For another experiment, the system named is parental Ba/F3 cell line. The experiment is described as follows: Growth inhibition (GI50) of the parental Ba/F3 cell line (not introduced with EGFR variants), Celltiter glo. As to conditions: Mus musculus, BaF3, 72 h, parental Ba/F3 cells. The essentials:
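Viable cell count by CellTiter-Glo after 72 h at 37 °C gave GI50 values (μM, 50% growth inhibition). Cells lacking EGFR variants were seeded at 100,000 cells/ml and dosed 4 h later with 4-fold serial dilutions from a 2 mM stock, 0.5% DMSO.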

For experiment [4], the system named is Ba/F3 cells expressing del19/T790M (EGFR-DT). Nature of the experiment: Growth inhibition (GI50) of Ba/F3 cells expressing del19/T790M (EGFR-DT), Celltiter glo. As to conditions: Mus musculus, BaF3, 72 h. As for the experimental part:
(§2) In this experimental example, a determination was made as to whether the compounds prepared in Examples 1-283 have the ability to inhibit the growth of Ba/F3 cells expressing EGFR-wt, del19/T790M/C797S (EGFR-DTC), L858R/T790M/C797S (EGFR-LTC), del19/T790M (EGFR-DT), and L858R/T790M (EGFR-LT) variants.
(§3) The parental Ba/F3 cell line is a population of cells that are not introduced with EGFR variants. Specifically, 100 μl of a cell line expressing each variant was plated in a 96-well plate at a density of 100,000 cells/ml. 10-point, 4-fold serial dilutions of each compound were prepared, starting at 2 mM. After 4 h, 0.5 μl of the compound (0.5% DMSO) was added, followed by incubation at 37° C. and 5% CO2 for 72 h. After incubation, the number of viable cells was measured using a Celltiter glo assay kit (Promega) and the GI50 of the compound was determined. The term “GI50” refers to the molar concentration (μM) of the compound required for 50% growth inhibition of cells.

Experiment [5] concerns Ba/F3 cells expressing L858R/T790M (EGFR-LT). Nature of the experiment: Growth inhibition (GI50) of Ba/F3 cells expressing L858R/T790M (EGFR-LT), Celltiter glo. The settings on record: Mus musculus, BaF3, 72 h. The procedure: as §2, §3

In the case of `COc1nc(N2CCS(=O)(=O)CC2)ccc1Nc1ncc(Cl)c(Nc2ccccc2NS(C)(=O)=O)n1` [Example 6], the GI50 is 500 to 2000 nM in experiment [1]; 500 to 2000 nM in experiment [2]; 500 to 2000 nM in experiment [3]; greater than 10000 nM in the experiment on parental Ba/F3 cell line; 500 to 2000 nM in experiment [4]; 500 to 2000 nM in experiment [5].

With `COc1nc(N2CCC(N3CCN(C)CC3)CC2)c(C)cc1Nc1ncc(Cl)c(Nc2ccc(F)cc2NS(C)(=O)=O)n1` [Example 15, N-(2-((5-chloro-2-((2-methoxy-5-methyl-6-(4-(4-methylpiperazin-1-yl)piperidin-1-yl)pyridin-3-yl)amino)pyrimidin-4-yl)amino)-5-fluorophenyl)methanesulfonamide], the GI50 in experiment [1] lay in the range of 100 to 500 nM; in experiment [2] it was 500 to 2000 nM; in experiment [3], 100 to 500 nM; in the experiment with parental Ba/F3 cell line it was 500 to 2000 nM; in experiment [4], 1 to 25 nM; in experiment [5], 100 to 500 nM.

With `COc1nc(N2CCN(CCO)CC2)ccc1Nc1ncc(Cl)c(Nc2ccc(F)cc2NS(C)(=O)=O)n1` [Example 18], the GI50 lay in the range of 500 to 2000 nM in experiment [1]; 25 to 100 nM in experiment [2]; 500 to 2000 nM in experiment [3]; 100 to 500 nM in the experiment on parental Ba/F3 cell line; 500 to 2000 nM in experiment [4]; 500 to 2000 nM in experiment [5].

For `COc1nc(N2CCN(C(C)=O)CC2)ccc1Nc1ncc(Cl)c(Nc2ccc(F)cc2NS(C)(=O)=O)n1` [Example 19, N-(2-((2-((6-(4-acetylpiperazin-1-yl)-2-methoxypyridin-3-yl)amino)-5-chloropyrimidin-4-yl)amino)-5-fluorophenyl)methanesulfonamide], the GI50 in experiment [1] was 500 to 2000 nM; in experiment [2] it was 500 to 2000 nM; in experiment [3], 500 to 2000 nM; in the experiment on parental Ba/F3 cell line, 2000 to 10000 nM; in experiment [4], 500 to 2000 nM; in experiment [5] it was 500 to 2000 nM.

`COc1nc(N2C[C@@H](C)N(C)[C@@H](C)C2)ccc1Nc1ncc(Cl)c(Nc2ccc(F)cc2NS(C)(=O)=O)n1` [Example 20, N-(2-((5-chloro-2-((2-methoxy-6-((3S,5R)-3,4,5-trimethylpiperazin-1-yl)pyridin-3-yl)amino)pyrimidin-4-yl)amino)-5-fluorophenyl)methanesulfonamide]: the 50% growth inhibitory concentration (GI50) in experiment [1] fell in the range of 500 to 2000 nM; in experiment [2], 2000 to 10000 nM; in experiment [3], 500 to 2000 nM; in the experiment with parental Ba/F3 cell line, 2000 to 10000 nM; in experiment [4], 500 to 2000 nM; in experiment [5], 500 to 2000 nM.

`COc1nc(N2CCC(N3CCN(C)CC3)CC2)ccc1Nc1ncc(Cl)c(N(c2ccc3scnc3c2NS(C)(=O)=O)S(C)(=O)=O)n1` [Example 111, N-(5-chloro-2-((2-methoxy-6-(4-(4-methylpiperazin-1-yl)piperidin-1-yl)pyridin-3-yl)amino)pyrimidin-4-yl)-N-(4-(methylsulfonamido)benzo[d]thiazol-5-yl)methanesulfonamide]: the GI50 in experiment [1] lay within 500 to 2000 nM; in experiment [2], 2000 to 10000 nM; in the experiment with parental Ba/F3 cell line it was 2000 to 10000 nM; in experiment [4], 500 to 2000 nM; in experiment [5] it was 2000 to 10000 nM.

`COc1cc(N2CCC(N3CCN(C)CC3)CC2)c(Cl)cc1Nc1ncc(Cl)c(Nc2cc(Cl)ccc2NS(C)(=O)=O)n1` [Example 151, N-(4-chloro-2-((5-chloro-2-((5-chloro-2-methoxy-4-(4-(4-methylpiperazin-1-yl)piperidin-1-yl)phenyl)amino)pyrimidin-4-yl)amino)phenyl)methanesulfonamide]: the GI50 in experiment [1] is 1 to 25 nM; in experiment [2], 100 to 500 nM; in experiment [3] it was 1 to 25 nM; in experiment [4], 1 to 25 nM; in experiment [5] it was 1 to 25 nM.

Turning to `COc1cc(N2CCC(N3CCN(C)CC3)CC2)c(Cl)cc1Nc1ncc(Br)c(Nc2cc(Cl)ccc2-c2cnn[nH]2)n1` [Example 195], the GI50 in experiment [1] lay within 25 to 100 nM; in experiment [2], 100 to 500 nM; in experiment [3] it was 25 to 100 nM; in the experiment on parental Ba/F3 cell line, 100 to 500 nM.

The GI50 is the concentration giving 50% growth inhibition.
